Laboratory results from patent publication US7166634B2, “Bis-indole pyrroles useful as antimicrobials agents” (Nereus Pharmaceuticals, Inc., priority 2004, dated 2007).
Values joined by “and” are separate entries in the source; they are usually repeats but may differ in a detail not shown here. Identical values can stand only once.

Experiments:
Experiment in all cases: MIC, broth microdilution (NCCLS M7-A5)
Format in all cases: cell-based
[1] = test system: S. epidermidis - ATCC 700578; design: Staph Epi 700578 MIC: unit not given here; conditions: Table 4; averages of 2 experiments, * single experiment; both values given when differing >2 fold
Protocol: (§1) Minimum inhibitory concentrations (MICs) are determined according to the National Committee for Clinical Laboratory Standards (NCCLS) susceptibility test guideline M7-A5 (Ferraro, M. 2001 Methods for Dilution Antimicrobial Susceptibility Tests for Bacteria that Grow Aerobically; Approved Standard (NCCLS). National Committee for Clinical Laboratory Standards (NCCLS), Villanova) to quantify the antimicrobial activity of the compounds of the present embodiment against various pathogenic bacteria. Susceptibility testing is performed by broth microdilution in accordance with National Committee for Clinical Laboratory Standards (NCCLS) guidelines. This procedure entails combining the test compounds with a standardized number of cells, incubating at the temperature and amount of time appropriate for each particular organism, and visually scoring the concentration at which no growth was apparent in the test wells. The panel includes both drug sensitive and drug resistant isolates of both gram-positive and gram-negative bacteria, including: S. aureus (both MSSA and MRSA), S. pneumoniae (wild type and penicillin-resistant), vancomycin-sensitive E. faecalis, vancomycin-resistant E. faecium, E. coli, H. influenzae and P. aeruginosa.
(§2) Susceptibility testing was performed by broth microdilution in accordance with National Committee for Clinical Laboratory Standards (NCCLS) guidelines. Antimicrobial data for compounds of Formulae II, III, IV, VI, VII, VIII, IX, XII, XIII, XIV, XV′, XV, XVI, XVII, XVIII, XXI′, XXII, XXIII, XXIV, and XXV are shown in Tables 3, 4 and 5.

S. aureus - MRSA (43300) = conditions: Table 4; averages of 2 experiments, * single experiment; both values given when differing >2 fold; in µg/mL
Protocol: as §1, §2

[2] = test system: E. faecium - Van^r (VRE 700221); conditions: Table 4, averages of 2 experiments, * single experiment, both values given when differing >2 fold
Protocol: as §1, §2

[3] = test system: S. pneumoniae - penicillin resistant (51915); conditions: Table 4, averages of 2 experiments, * single experiment, both values given when differing >2 fold
Protocol: as §1, §2

[4] = test system: S. pneumoniae - penicillin sensitive (49619); conditions: Table 4, averages of 2 experiments, * single experiment, both values given when differing >2 fold
Protocol: as §1, §2

E. coli - imp = conditions: Table 5
Protocol: as §1, §2

S. aureus - MSSA (29213) = conditions: Table 4; averages of 2 experiments, * single experiment; both values given when differing >2 fold; in µg/mL
Protocol: as §1, §2

[5] = test system: H. influenzae - ATCC 49766; conditions: Table 4 (MIC); averages of 2 experiments, * single experiment; both values given when differing >2 fold
Protocol: as §1, §2

[6] = test system: H. influenzae - ATCC 49247; conditions: Table 4 (MIC); averages of 2 experiments, * single experiment; both values given when differing >2 fold
Protocol: as §1, §2

[7] = test system: S. epidermidis - ATCC 700582; design: Staph Epi 700582 MIC: unit not given here; conditions: Table 4; averages of 2 experiments, * single experiment; both values given when differing >2 fold
Protocol: as §1, §2

[8] = test system: E. faecalis - Van^s (VSE 29212); design: VSE 29212 MIC: unit not given here; conditions: Table 4; averages of 2 experiments, * single experiment; both values given when differing >2 fold
Protocol: as §1, §2

Row | Compound | Staph Epi 700578 MIC [1] | MRSA 43300 MIC (S. aureus - MRSA (43300)) | VRE 700221 MIC ([2]; in µg/mL) | S. pneumo 51915 Pen R MIC ([3]; in µg/mL) | S. pneumo 49619 Pen. S MIC [4] | E. coli imp MIC (E. coli - imp) | MSSA 29213 MIC (S. aureus - MSSA (29213)) | H. inf. 49766 [5] | H. inf. 49247 [6] | Staph Epi 700582 MIC [7] | VSE 29212 MIC [8] | S. pneumo 49619 Pen. S MIC ([4]; in µg/mL) | VRE 700221 MIC [2] | S. pneumo 51915 Pen R MIC [3]
1 | COC(=O)c1[nH]c(C(=O)OC)c(-c2c[nH]c3ccccc23)c1-c1c[nH]c2ccccc12 [IX] | 16 | >32 | >32 | >32 | 32, >32 | >32 µg/mL | >32 | >32 | >32 | 16 | >32 | – | – | –
2 | O=C(O)c1[nH]c(C(=O)O)c(-c2c[nH]c3ccc(Cl)cc23)c1-c1c[nH]c2ccc(Cl)cc12 [VIII] | >16 | >16 | >16 | >16 | – | >16 µg/mL | >16 | >16 | >16 | >16 | >16 | >16 | – | –
3 | O=C(O)c1[nH]cc(-c2c[nH]c3ccc(Cl)cc23)c1-c1c[nH]c2ccc(Cl)cc12 [VII] | 16* | 16* | >32* | >32* | – | >32 µg/mL | 12* | >32* | >32* | 16* | >32* | >32* | – | –
4 | COC(=O)c1[nH]c(C(=O)OC)c(-c2c[nH]c3ncccc23)c1-c1c[nH]c2ccc(Cl)cc12 [XIII] | 8* | 4* | 32* | >32* | – | >32 µg/mL | 3* | >32* | >32* | 8* | 16* | >32* | – | –
5 | O=C(O)c1[nH]cc(-c2c[nH]c3cc(Cl)c(Cl)cc23)c1-c1c[nH]c2ccc(Cl)cc12 [XII] | 3 | 6 | 8 | >32 | – | 20 µg/mL | 4 | 10 | 8 | 6 | 8 | >32 | – | –
6 | COC(=O)c1[nH]cc(-c2c[nH]c3cc(Cl)c(Cl)cc23)c1-c1c[nH]c2ncccc12 [XIV] | 8* | 6 | 6 | 24* | – | – | 6 | >32* | >32* | 8* | 12 | 32* | – | –
7 | COC(=O)c1[nH]c(C(=O)OC)c(-c2c[nH]c3ccc(F)cc23)c1-c1c[nH]c2ccc(F)cc12 [XVIII] | 16* | 12* | >32* | >32* | – | >32 µg/mL | 8* | >32* | >32* | 16* | >32* | >32* | – | –
8 | COC(=O)c1[nH]cc(-c2c[nH]c3cc(F)c(Cl)cc23)c1-c1c[nH]c2ccc(Cl)cc12 [XVII] | 1* | 1* | 4* | 24* | – | 8 µg/mL | 1* | 16* | >32* | 1* | 4* | 16* | – | –
9 | COC(=O)c1[nH]cc(-c2c[nH]c3ccc(Br)cc23)c1-c1c[nH]c2ccc(Br)cc12 [XVI] | 2.5 | 2.5 | 6 | 24 | – | >32, 32 ug/mL | 1.4 | 16 and > 32 | >32 | 2.5 | 5 | 20 | – | –
10 | COC(=O)c1[nH]c(C(=O)OC)c(-c2c[nH]c3ccc(F)cc23)c1-c1c[nH]c2ccccc12 [XXIII] | >32* | >32* | >32* | >32* | – | >32 µg/mL | 16* | >32* | >32* | 16* | >32* | >32* | – | –
11 | COC(=O)c1[nH]c(C(=O)OC)c(-c2c[nH]c3cc(F)c(Cl)cc23)c1-c1c[nH]c2ccc(Cl)cc12 [XXII] | 2.5 | 1.5 | – | 32 | – | >32 µg/mL | 1.25 | 4 | – | 2 | 6 | 32 | 16 and > 32 | –
12 | COC(=O)c1[nH]cc(-c2c[nH]c3cc(Cl)c(F)cc23)c1-c1c[nH]c2ccc(F)cc12 [XXIV] | 2* | 1.5* | 8* | 16* | – | 8 µg/mL | 1* | 16* | 16* | 2* | 4* | 23* | – | –
13 | COC(=O)c1[nH]c(C(=O)OC)c(-c2c[nH]c3ccc(Cl)cc23)c1-c1c[nH]c2ccc(F)cc12 [XX] | 8 | 5 | >32 | – | – | >32 µg/mL | 4 | >32 | – | 8 | 24 | 32 | – | >32, 32
